Results as given in US20230102247A1, “METHODS AND COMPOSITIONS RELATING TO IONIC LIQUID ADJUVANTS” (PRESIDENT AND FELLOWS OF HARVARD COLLEGE, priority 2020, published 2023).
Structures can show the parent of a compound that is named as a salt. Where two headings read alike, the source gives them in different places.

Key:
[1] = cited from earlier work
OVA [2] = target: T1, OVA (Gallus gallus, UniProt P01012); settings: 10% w/v CoLa in saline, compared to alum
Procedure: For the CoLa adjuvant formulation, 10% w/v CoLa was added unless specified. Adsorbed OVA was quantified using a plate reader (Spectramax i3™)

OVA [3] = target: T1, OVA
Procedure: An SDS-PAGE assay was carried out to assess OVA aggregation from the OVA-CoLa or alum samples. 1 mg mL-1 OVA in 10% v/v CoLa or 2% alum were incubated for 1 h at room temperature (25° C.). OVA in saline was used as a negative control. […] Before electrophoresis, all samples were centrifuged at 5000×g for 5 min to discard any undissolved residue and the clear supernatants were adjusted to equivalent protein concentration. […] The protein bands were stained with Bio-Safe Coomassie stain (BioRad) for observation according to the manufacturer's protocol. Circular dichroism spectrophotometry (Jasco J-1500, Easton) was performed in the far-UV region (190-250 nm) to collect spectra. The three OVA (0.5 mg mL-1) containing formulations were centrifuged for 10 min at 10,000×g. The supernatant was removed via pipetting, while the soft OVA pellet at the bottom of the tube was not disturbed. The pellet was washed with 1 mL PBS and centrifuged again to remove the supernatant. The washing/centrifugation steps were repeated until no OVA pellet was formed during centrifugation. Rectangular quartz cells with a 1 mm path length (1-Q-1) were loaded with 400 μL of a sample. As a control spectrum, OVA in PBS was used. Each spectrum was the average of three scans.

immune response to OVA = test system: immune response to OVA
Procedure: (§1) Female Balb/C mice (6-8-week-old) were purchased from Charles River Laboratories. All experiments were performed according to the approved protocols by the Institutional Animal Care and Use Committee (IACUC) of the Faculty of Arts and Sciences (FAS), Harvard University, Cambridge.
Balb/c mice were subcutaneously injected in the back with 50 μL of OVA-saline, OVA-CoLa or alum (n=8 for all groups). A total of three injections were given on day 0, day 7 and day 14. On day 19, the mice were euthanized, blood and spleen were collected for further analysis.
Blood was centrifuged at 5000 rpm for 10 minutes at 4° C. to separate the serum from the cells. Anti-OVA IgG titer was measured as previously described^13.

OVA [4] = target: T1, OVA; remark: listed apart in the source
Procedure: OVA containing solutions (0.5 mg mL-1) and complete medium (DMEM+10% FBS) were mixed to a total volume of 500 μL and incubated at 37° C. on a tube revolver. At regular time points, the suspensions were centrifuged at 12 000×g for 15 min and the supernatant was collected for analysis. The pellet was further resuspended in 400 μL fresh release media and incubated until the next time point.

[5] = test system: infiltrating immune cells at the injection site; settings: subcutaneous, 24 h
Procedure: as §1
Balb/c mice were subcutaneously injected in the back with 50 μL of saline, CoLa or alum (n=4 for all groups). […] Undigested tissue was removed by 70 μm mesh filtration. The suspension was centrifuged at 400×g for 10 min. The supernatant was removed via pipetting and 2 mL ACK lysing buffer (Thermo Fisher) was added to the pellet. After 5 min the suspensions were centrifuged again and resuspended with 2 mL FCS blocking buffer.

T1 sequence (P01012 whole entry): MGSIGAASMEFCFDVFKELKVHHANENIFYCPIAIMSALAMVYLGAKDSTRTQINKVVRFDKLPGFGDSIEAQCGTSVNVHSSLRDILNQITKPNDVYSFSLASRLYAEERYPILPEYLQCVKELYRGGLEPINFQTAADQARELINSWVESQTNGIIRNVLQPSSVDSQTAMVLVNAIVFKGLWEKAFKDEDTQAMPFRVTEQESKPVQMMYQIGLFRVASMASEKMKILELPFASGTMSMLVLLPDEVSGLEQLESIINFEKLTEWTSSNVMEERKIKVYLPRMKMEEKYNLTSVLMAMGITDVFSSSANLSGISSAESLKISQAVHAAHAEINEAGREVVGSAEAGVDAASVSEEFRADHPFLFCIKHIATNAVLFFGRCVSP

CCCCC(CC)COS(=O)(=O)O (stereo not drawn) [2-Ethylhexyl sulfate]
LogP [1]: 3.10

CC(C)=CC(=O)O [3,3-dimethylacrylic acid]
LogP [1]: 1.2

O=S(=O)(O)c1ccc(O)cc1 [4-hydroxybenzenesulfonic acid]
LogP ([1]; exemplary anions): 0.2

O=C(O)c1cccc(-c2ccccc2)c1 [Biphenyl-3-carboxylic acid]
LogP ([1]; exemplary anions): 3.5

CC(O)C(=O)O.CC(O)C(=O)[O-].C[N+](C)(C)CCO [CoLa, Choline lactate (1:2)]
OVA adsorption on adjuvant (OVA [2]): lower adsorption | secondary structure of OVA (CD analysis) (OVA [3]): preserved | molecular integrity of adsorbed OVA (SDS-PAGE) (OVA [3]; similar to alum and saline): maintained the molecular integrity | Th2 response, as assessed by anti-OVA IgG (immune response to OVA; compared to alum): non-significant Th2 response | Th1 response (immune response to OVA; injections day 0, 7, 14, analysis day 19): strong Th1 response | activated dendritic cells (CD80) (immune response to OVA; spleen, CoLa versus alum): significantly higher | increase in IFN-γ+CD4 cells (immune response to OVA; spleen, compared to alum): ~3 fold | increase in the number of CD4 cells (immune response to OVA; spleen, compared to both the other groups): 50% | increase in the CD8 cells (immune response to OVA; spleen, compared to the controls): 5 fold | increase in natural killer (NK) cells (immune response to OVA; spleen, compared to the saline group): ~1.8 fold | time over which adsorbed OVA was released (OVA [4]; 10% w/v CoLa in saline, DMEM+10% FBS, 37° C.): 24 h | release of adsorbed OVA (OVA [4]; compared to alum): faster release | infiltrating CD8 cells [5]: no such effect | CD86 (activation marker) on infiltrating dendritic cells ([5]; compared to the controls): significant increase | increase in infiltration of CD4 cells ([5]; compared to the controls): ~25% | higher infiltration of dendritic cells ([5]; compared to untreated and alum-treated mice): 20%

O=C(O)[C@H](O)[C@@H](O)[C@H](O)[C@H](O)CO [Gluconic acid]
LogP ([1]; exemplary anions): −3.4

O=C(O)CO [Glycolic acid]
LogP ([1]; exemplary anions): −1.11

O=C(O)CCc1ccccc1 [Hydrocinnamic acid]
LogP ([1]; exemplary anions): 1.84

CC(C)C(=O)O [Isoburtyric acid]
LogP ([1]; exemplary anions): 0.94

O=C(O)/C=C\C(=O)O [Maleic acid]
LogP ([1]; exemplary anions): −0.48

O=P(O)(O)Oc1ccccc1 [Phenylphosphoric acid]
LogP ([1]; exemplary anions): 1.05

CCC(=O)O [Propanoic acid]
LogP ([1]; exemplary anions): 0.33
